According to publication PMC6770484, “Discovery of Orexant and Anorexant Agents with Indazole Scaffold Endowed with Peripheral Antiedema Activity” (Biomolecules, 2019):
Where two headings read alike, the source gives them in different places.

Experiments:
[1] = biological target: T1, cannabinoid receptors (CB1), rat brain membranes (Rattus norvegicus, UniProt P20272); conditions: displacement of [3H]WIN55212-2, rat brain membranes; cited from earlier work
T1 construct: Crude membrane fractions were prepared from the brain; from tissue; host or cells: Wistar rat whole brain, crude membrane fraction
T1 sequence (P20272 whole entry): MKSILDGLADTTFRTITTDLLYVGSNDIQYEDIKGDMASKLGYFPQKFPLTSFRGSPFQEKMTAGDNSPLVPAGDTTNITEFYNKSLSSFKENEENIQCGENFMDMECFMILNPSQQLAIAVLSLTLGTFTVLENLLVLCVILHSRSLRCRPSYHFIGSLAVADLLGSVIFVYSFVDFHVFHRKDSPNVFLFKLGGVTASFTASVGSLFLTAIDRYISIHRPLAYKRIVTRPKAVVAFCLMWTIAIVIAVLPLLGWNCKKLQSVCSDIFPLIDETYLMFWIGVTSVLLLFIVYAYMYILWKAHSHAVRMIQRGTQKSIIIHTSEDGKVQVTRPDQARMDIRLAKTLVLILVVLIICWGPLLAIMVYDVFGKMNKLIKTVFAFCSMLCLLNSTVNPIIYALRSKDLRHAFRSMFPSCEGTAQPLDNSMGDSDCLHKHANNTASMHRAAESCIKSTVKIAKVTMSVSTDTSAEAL

[2] = biological target: T2, CB1 receptor G protein activation, rat brain membranes (Rattus norvegicus, UniProt P20272); conditions: cited from earlier work; for [35S]GTPγS Binding Emax: basal = 100%; for EC50: read-out: [35S]GTPγS Binding EC50
T2 construct: Crude membrane fractions were prepared from the brain; from tissue; host or cells: Wistar rat whole brain, crude membrane fraction
T2 sequence (P20272 whole entry): as above

[3] = system: food intake; test: Feeding test (food intake); assay type: in vivo, CD-1 male mice; conditions: 10 mg/Kg i.p., fasted mice, 1-h test
From the text: (§1) The international and national law and policies approved by Italian Ministry of Health were used to comply with all animal care and experimental procedures. Animal studies were advised in compliance with the ARRIVE guidelines and with the recommendations made by EU Directive 2010/63/EU for animal experiments and the Basel declaration including the 3Rs concept. CD-1 male mice (10–14 weeks of age, 25–30 g of weight) were bought from Charles River (Milan, Italy). Shortly after their arrival and for at least one week, they were kept in an animal care facility under controlled standard conditions of temperature (21 ± 1 °C), light (from 7:00 AM to 7:00 PM), and relative humidity (60 ± 10%). Access to drinking water and food was assured. All procedures were performed to decrease the number of animals used (n = 6 per group) and their distress.
The test was carried out as previously described. At 24 h before the start of a feeding test, all food was removed from the home cages of mice to be tested. The next day and at least 1 h before the feeding test began, the mice were transported to the laboratory. On test days, the animals were placed in the home cages for 30 min of drug assimilation, during which food was not available. Then compounds were intraperitoneally administered (10 mg/kg). Mice were transferred into transparent and individual plastic cages with thick white paper lining the bottom and access to a pre-measured amount of their regular lab chow (2 gr) for the 1-h test. At the end of 1 h, mice were repositioned into their home cage. The amount of food left in the trial cage, including crumbs, was measured, and the amount consumed was calculated. Feeding trials normally happened on Tuesdays and Fridays between 12:00 and 14:00 h.

[4] = biological target: T2, CB1 receptor G protein activation, rat brain membranes; test: Ligand stimulated [35S]GTPγS binding assay; assay type: biochemical; conditions: for Emax: rat brain membranes, basal = 100%, mean ± S.E.M.
Procedure: (§2) Wistar rats were locally bred and handled according to the EU Directive 2010/63/EU and to the Regulations on Animal Protection (40/2013. (II. 14.) Korm. r.) of Hungary. Crude membrane fractions were prepared from the brain. Brains were quickly removed from the euthanized rats and directly put in an ice-cold 50 mM Tris–HCl buffer (pH 7.4). The collected tissue was then homogenized in 30 volumes (v/w) of an ice-cold buffer with a Braun Teflon-glass homogenizer at the highest rpm. The homogenate was centrifuged at 20,000× g for 25 min, and the resulting pellet was suspended in the same volume of a cold buffer followed by incubation at 37 °C for 30 min to remove endogenous ligands. Centrifugation was then repeated. The final pellets were taken up in five volumes of a 50 mM Tris–HCl (pH 7.4) buffer containing 0.32 M sucrose and stored at −80 °C. Prior to the experiment, aliquots were thawed and centrifuged at 20,000× g for 25 min and then they were resuspended in 50 mM Tris–HCl (pH 7.4), homogenized with a Douncer, followed by the determination of the protein concentration by the method of Bradford. The membrane suspensions were immediately used either in radioligand binding experiments or in [^35S]GTPγS functional assays.
Rat brain membranes (30 µg protein/tube), prepared as described above, were incubated with 0.05 nM of [^35S]GTPγS (PerkinElmer) and 10^−10–10^−5 M unlabeled ligands in the presence of 30 µM of GDP, 100 mM of NaCl, 3 mM of MgCl2 and 1 mM of EGTA in a 50 mM Tris–HCl buffer (pH 7.4) for 60 min at 30 °C. Basal [^35S]GTPγS binding was measured in the absence of ligands and set as 100%. Nonspecific binding was determined by the addition of 10 µM unlabeled GTPγS and subtracted from total binding. Incubation, filtration and radioactivity measurements of the samples were carried out as described above.
In [^35S]GTPγS binding studies, data were expressed as the percentage stimulation of the specific [^35S]GTPγS binding over the basal activity and are given as means ±S.E.M. Each experiment was performed in triplicate and analyzed with sigmoid dose–response curve fitting to obtain potency (EC50) and efficacy (Emax) values. All data and curves were analyzed by GraphPad Prism 5.0 (San Diego, CA, USA).

[5] = biological target: T1, cannabinoid receptors (CB1), rat brain membranes; test: [3H]WIN55212-2 radioligand competition binding assay
Procedure: as §2
Filtration was performed with a 24-well Brandel Cell Harvester (Gaithersburg, MD, USA). Filters were air-dried and immersed into Ultima Gold MV scintillation cocktail, and then radioactivity was measured with a TRI-CARB 2100TR liquid scintillation analyzer (Packard, Perkin Elmer, Waltham, MA, USA).

[6] = system: zymosan-induced thermal hyperalgesia; test: Zymosan-induced hyperalgesia (plantar test); assay type: in vivo, CD-1 male mice; conditions: 100 μg/20 μL s.c., after 3 h
From the text: as §1, with “All procedures were performed to decrease the number of animals used (n = 6 per group) and their distress.” left out
The compounds (100 µg) were administered subcutaneously in a volume of 20 µL in the dorsal surface of mice hind paw; this was done 15 min before a subcutaneous injection (20 μL/paw) of zymosan A (2.5% w/v in saline) into the same paw before the measurement of hyperalgesia. The sensitivity to a noxious heat stimulus was measured by the plantar test (Ugo Basile, Italy), in order to evaluate thermal hyperalgesia after the zymosan-induced inflammation of the mouse hind paw. […] Furthermore, on the test day, the animals were acclimatized to the experimental room 1 h before paw withdrawal latency (PWL) was calculated. […]

[7] = system: formalin-induced licking/biting; test: Formalin test; assay type: in vivo, CD-1 male mice; conditions: 100 μg/20 μL s.c., mice
From the text: as §1
Mice were located to adapt into the transparent cages individually (30 × 14 × 12 cm) for at least an hour before testing. They were injected with 20 μL of a 1% solution of formalin in saline. Then, the compounds were administered subcutaneously in the dorsal surface of the right hind paw of the mouse using a microsyringe with a 27-gauge needle for 15 min before. Compounds were prepared by freshly diluting saline containing 0.9% NaCl in the ratio DMSO:saline 1:3 (v/v). […] The total time the animal spent licking or biting its paw was calculated.

[8] = system: zymosan-induced paw edema; test: Edema induced by zymosan; assay type: in vivo, CD-1 male mice; conditions: 100 μg/20 μL s.c., for 24 h
From the text: as §1
In this test, 100 µg of the compounds were administered subcutaneously in a volume of 20 µL in the dorsal surface of mice hind paw; this was done 15 min before a subcutaneous injection (20 μL/paw) of zymosan A (2.5% w/v in saline) into the same paw. Then, paw edema was calculated as formerly described. […] Paw volume was quantified using a hydroplethysmometer modified for small volumes (Ugo Basile, Varese, Italy) three times before the injections and at 1, 2, 3, 4 and 24 h thereafter.

Q: With `CCCCCn1cc(C(=O)c2cccc3ccccc23)c2ccccc21` [JWH-018, reference compound] as the compound, how does the Ki [1] read?
A: 3.5 ± 1 nM

Q: And the “[35S]GTPγS Binding Emax” value [2]?
A: 163 ± 5.2%

Q: What about the EC50 [2] of the same compound?
A: 16 ± 3 nM

Q: With `CC(C)(C)[C@H](NC(=O)c1nn(Cc2ccc(Cl)cc2Cl)c2ccccc12)C(=O)O` [LONI1, (S)-2-(1-(2,4-dichlorobenzyl)-1H-indazole-3-carboxamido)-3,3-dimethylbutanoic acid] as the compound, how does the “[35S]GTPγS Binding Emax” value [2] read?
A: 84 ± 6.6%

Q: And the EC50 [2]?
A: > 1000 nM

Q: What does the source list for `COC(=O)[C@@H](NC(=O)c1nn(Cc2ccc(Cl)cc2Cl)c2ccccc12)C(C)(C)C` [LONI2, (S)-methyl-2-(1-(2,4-dichlorobenzyl)-1H-indazole-3-carboxamido)-3,3-dimethylbutanoate]?
A: effect on food intake [3]: reduce food intake; [35S]GTPγS Binding Emax [2]: 143 ± 5.7%; EC50 [2]: 8.4 nM

Q: Which “[35S]GTPγS Binding Emax” value [2] does the source give for `CC(C)(C)[C@H](NC(=O)c1nn(Cc2ccc(Cl)cc2Cl)c2ccccc12)C(N)=O` [LONI3, (S)-N-(1-amino-3,3-dimethyl-1-oxobutan-2-yl)-1-(2,4-dichlorobenzyl)-1H-indazole-3-carboxamide] here?
A: 139 ± 4.5%

Q: What about the EC50 [2] of the same compound?
A: 126 nM

Q: For `CC(C)[C@H](NC(=O)c1nn(Cc2ccc(Cl)cc2Cl)c2ccccc12)C(=O)O` [LONI4, (S)-2-(1-(2,4-dichlorobenzyl)-1H-indazole-3-carboxamido)-3-methylbutanoic acid], which “effect on food intake” value [3] is on record?
A: reduce food intake

Q: What about the “[35S]GTPγS Binding Emax” value [2] of the same compound?
A: 82 ± 10.6%

Q: What about the EC50 [2] of the same compound?
A: > 1000 nM

Q: Which Emax [4] does the source give for `CNC(=O)[C@@H](NC(=O)c1nn(Cc2ccc(Cl)cc2Cl)c2ccccc12)C(C)C` [LONI10, (S)-1-(2,4-dichlorobenzyl)-N-(3-methyl-1-(methylamino)-1-oxobutan-2-yl)-1H-indazole-3-carboxamide] here?
A: 100 ± 1.7%

Q: What about the Ki [5] of the same compound?
A: 84 ± 3.4 nM

Q: For `CNC(=O)[C@@H](NC(=O)c1nn(Cc2ccc(Cl)cc2Cl)c2ccccc12)C(C)(C)C` [LONI11, (S)-1-(2,4-dichlorobenzyl)-N-(3,3-dimethyl-1-(methylamino)-1-oxobutan-2-yl)-1H-indazole-3-carboxamide], which “effect on food intake” value [3] is on record?
A: increased the food intake

Q: And the EC50 [4]?
A: 200 ± 13 nM

Q: And the “potency in GTP-binding protein stimulation relative to WIN55,212” value ([4]; compared with WIN55,212)?
A: three-fold less potency

Q: And the Emax [4]?
A: 151 ± 3%

Q: And the Ki [5]?
A: 11 ± 1.2 nM

Q: What about the “percent of paw latency (zymosan-induced hyperalgesia)” value [6] of the same compound?
A: about 50%

Q: What about the “antinociceptive effect in formalin test” value [7] of the same compound?
A: slight antinociceptive effect

Q: What about the “percent of paw volume (zymosan-induced edema)” value [8] of the same compound?
A: 100%

Q: With `CNC(=O)[C@H](CC(C)C)NC(=O)c1nn(Cc2ccc(Cl)cc2Cl)c2ccccc12` [LONI12, (S)-1-(2,4-dichlorobenzyl)-N-(4-methyl-1-(methylamino)-1-oxopentan-2-yl)-1H-indazole-3-carboxamide] as the compound, how does the Emax [4] read?
A: 101 ± 1%

Q: And the Ki [5]?
A: 320 ± 16 nM

Q: With `Cc1c(C(=O)NN2CCCCC2)nn(-c2ccc(Cl)cc2Cl)c1-c1ccc(Cl)cc1` [rimonabant, 5-(4-chlorophenyl)-1-(2,4-dichloro-phenyl)-4-methyl-N-(piperidin-1-yl)-1H-pyrazole-3-carboxamide, reference compound] as the compound, how does the “effect on food intake” value [3] read?
A: reduce food intake
